# Entries after “also recorded” stand apart in the source; their conditions may differ.
# Tested on: metastatic MDA-MB-231 breast cancer cells
# Assay: Microfluidic Assay for Quantification of Cell Invasion (MAqCI), migration of breast cancer cells
# Type: cell-based
# Conditions: 5 µM, 13 hours post administration, MDA-MB-231 cells, compared to vincristine (VC); FIG. 24
smiles,measurement,value
Fc1ccc([C@@H]2CCNC[C@H]2COc2ccc3c(c2)OCO3)cc1 [paroxetine],percentage of migratory cells in MAqCI,down to the levels of non-metastatic cells; also recorded: decreases the percent of migratory cells to the level of non-metastatic cells

# Reference: patent publication US20230357856A1, “METHODS AND COMPOSITIONS FOR PROGNOSING GLIOBLASTOMA OR BREAST CANCER” (The Johns Hopkins University, priority 2020, published 2023)
